From the supplement of paper PMC10307832

Assays:
Test in all cases: relative viability (nuclei count vs DMSO), 5 days (fraction); higher = more cells survive
NCI-H1755 = test system: NCI-H1755
Procedure, shortened: (§1)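 Nuclei were stained with Hoechst during a one-step fixation (final 0.05% Triton X-100, 1% formaldehyde, 1 ug/ml Hoechst) carried out 5 days after dosing, then counted on 4× images. The cells, lung cancer lines in 1536-well plates, had been dosed by pin tool the day after seeding with one drug alone or a fixed anchor-drug dose plus five library-drug doses (not always all listed) in √10 steps. Relative viability is the nuclei count in treated wells divided by that in vehicle wells, and each value is the median of duplicate plates.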

LU99A = test system: LU99A
Procedure, shortened: as §1

NCI-H1437 = test system: NCI-H1437
Procedure, shortened: as §1

NCI-H2085 = test system: NCI-H2085
Procedure, shortened: as §1

NCI-H1666 = test system: NCI-H1666
Procedure, shortened: as §1

NCI-H1650 = test system: NCI-H1650
Procedure, shortened: as §1

NCI-H1651 = test system: NCI-H1651
Procedure, shortened: as §1

COR-L23 = test system: COR-L23
Procedure, shortened: as §1

NCI-H1792 = test system: NCI-H1792
Procedure, shortened: as §1

NCI-H1355 = test system: NCI-H1355
Procedure, shortened: as §1

BEN = test system: BEN
Procedure, shortened: as §1

HCC-44 = test system: HCC-44
Procedure, shortened: as §1

NCI-H1563 = test system: NCI-H1563
Procedure, shortened: as §1

LXF-289 = test system: LXF-289
Procedure, shortened: as §1

NCI-H1993 = test system: NCI-H1993
Procedure, shortened: as §1

NCI-H2087 = test system: NCI-H2087
Procedure, shortened: as §1

NCI-H520 = test system: NCI-H520
Procedure, shortened: as §1

CAL-12T = test system: CAL-12T
Procedure, shortened: as §1

PC-14 = test system: PC-14
Procedure, shortened: as §1

NCI-H460 = test system: NCI-H460
Procedure, shortened: as §1

SK-MES-1 = test system: SK-MES-1
Procedure, shortened: as §1

NCI-H2170 = test system: NCI-H2170
Procedure, shortened: as §1

Compound: CN1CCN(CCOc2cc(OC3CCOCC3)c3c(Nc4c(Cl)ccc5c4OCO5)ncnc3c2)CC1 [Saracatinib] + C[C@@H](Oc1cc(-c2cnn(C3CCNCC3)c2)cnc1N)c1c(Cl)ccc(F)c1Cl [Crizotinib] (partner 1 µM)
- relative viability (NCI-H1755; first compound 0.02 µM): 0.883
- relative viability (NCI-H1755; first compound 0.2 µM): 0.536
- relative viability (NCI-H1755; first compound 0.6325 µM): 0.779
- relative viability (NCI-H1755; first compound 2 µM): 0.662
- relative viability (LU99A; first compound 0.02 µM): 0.664
- relative viability (LU99A; first compound 0.2 µM): 0.377
- relative viability (LU99A; first compound 0.6325 µM): 0.487
- relative viability (LU99A; first compound 2 µM): 0.39
- relative viability (NCI-H1437; first compound 0.02 µM): 0.912
- relative viability (NCI-H1437; first compound 0.2 µM): 0.866
- relative viability (NCI-H1437; first compound 0.6325 µM): 0.865
- relative viability (NCI-H1437; first compound 2 µM): 0.943
- relative viability (NCI-H2085; first compound 0.02 µM): 0.763
- relative viability (NCI-H2085; first compound 0.2 µM): 0.761
- relative viability (NCI-H2085; first compound 0.6325 µM): 0.766
- relative viability (NCI-H2085; first compound 2 µM): 0.755
- relative viability (NCI-H1666; first compound 0.02 µM): 1.04
- relative viability (NCI-H1666; first compound 0.2 µM): 0.965
- relative viability (NCI-H1666; first compound 0.6325 µM): 1.18
- relative viability (NCI-H1666; first compound 2 µM): 0.926
- relative viability (NCI-H1650; first compound 0.02 µM): 1.03
- relative viability (NCI-H1650; first compound 0.2 µM): 0.637
- relative viability (NCI-H1650; first compound 0.6325 µM): 0.582
- relative viability (NCI-H1650; first compound 2 µM): 0.413
- relative viability (NCI-H1651; first compound 0.02 µM): 0.866
- relative viability (NCI-H1651; first compound 0.2 µM): 0.802
- relative viability (NCI-H1651; first compound 0.6325 µM): 0.923
- relative viability (NCI-H1651; first compound 2 µM): 0.751
- relative viability (COR-L23; first compound 0.02 µM): 0.65
- relative viability (COR-L23; first compound 0.2 µM): 0.52
- relative viability (COR-L23; first compound 0.6325 µM): 0.658
- relative viability (COR-L23; first compound 2 µM): 0.558
- relative viability (NCI-H1792; first compound 0.02 µM): 0.94
- relative viability (NCI-H1792; first compound 0.2 µM): 0.922
- relative viability (NCI-H1792; first compound 0.6325 µM): 1.15
- relative viability (NCI-H1792; first compound 2 µM): 0.684
- relative viability (NCI-H1355; first compound 0.02 µM): 1.06
- relative viability (NCI-H1355; first compound 0.2 µM): 1.13
- relative viability (NCI-H1355; first compound 0.6325 µM): 1.08
- relative viability (NCI-H1355; first compound 2 µM): 0.925
- relative viability (BEN; first compound 0.02 µM): 0.77
- relative viability (BEN; first compound 0.2 µM): 0.738
- relative viability (BEN; first compound 0.6325 µM): 0.911
- relative viability (BEN; first compound 2 µM): 0.569
- relative viability (HCC-44; first compound 0.02 µM): 0.859
- relative viability (HCC-44; first compound 0.2 µM): 0.738
- relative viability (HCC-44; first compound 0.6325 µM): 0.952
- relative viability (HCC-44; first compound 2 µM): 1.01
- relative viability (NCI-H1563; first compound 0.02 µM): 0.905
- relative viability (NCI-H1563; first compound 0.2 µM): 0.778
- relative viability (NCI-H1563; first compound 0.6325 µM): 0.677
- relative viability (NCI-H1563; first compound 2 µM): 0.635
- relative viability (LXF-289; first compound 0.02 µM): 0.845
- relative viability (LXF-289; first compound 0.2 µM): 0.775
- relative viability (LXF-289; first compound 0.6325 µM): 0.847
- relative viability (LXF-289; first compound 2 µM): 0.892
- relative viability (NCI-H1993; first compound 0.02 µM): 0.832
- relative viability (NCI-H1993; first compound 0.2 µM): 0.594
- relative viability (NCI-H1993; first compound 2 µM): 0.589
- relative viability (NCI-H2087; first compound 0.02 µM): 0.993
- relative viability (NCI-H2087; first compound 0.2 µM): 0.697
- relative viability (NCI-H2087; first compound 0.6325 µM): 1.07
- relative viability (NCI-H2087; first compound 2 µM): 1.02
- relative viability (NCI-H520; first compound 0.02 µM): 0.74
- relative viability (NCI-H520; first compound 0.2 µM): 0.732
- relative viability (NCI-H520; first compound 0.6325 µM): 0.531
- relative viability (NCI-H520; first compound 2 µM): 0.37
- relative viability (CAL-12T; first compound 0.02 µM): 0.649
- relative viability (CAL-12T; first compound 0.2 µM): 0.522
- relative viability (CAL-12T; first compound 0.6325 µM): 0.746
- relative viability (CAL-12T; first compound 2 µM): 0.367
- relative viability (PC-14; first compound 0.02 µM): 0.993
- relative viability (PC-14; first compound 0.2 µM): 0.555
- relative viability (PC-14; first compound 0.6325 µM): 0.424
- relative viability (PC-14; first compound 2 µM): 0.167
- relative viability (NCI-H460; first compound 0.02 µM): 0.97
- relative viability (NCI-H460; first compound 0.2 µM): 0.501
- relative viability (NCI-H460; first compound 0.6325 µM): 0.696
- relative viability (NCI-H460; first compound 2 µM): 0.566
- relative viability (SK-MES-1; first compound 0.02 µM): 1.05
- relative viability (SK-MES-1; first compound 0.2 µM): 0.858
- relative viability (SK-MES-1; first compound 0.6325 µM): 0.825
- relative viability (SK-MES-1; first compound 2 µM): 0.517
- relative viability (NCI-H2170; first compound 0.02 µM): 1.13
- relative viability (NCI-H2170; first compound 0.2 µM): 1.24
- relative viability (NCI-H2170; first compound 0.6325 µM): 1.13
- relative viability (NCI-H2170; first compound 2 µM): 0.649
